# Tested on: Caco-2 cells
# Assay: Endocytosis inhibition experiments (Neu5Gc uptake in Caco-2 cells)
# Format: cell-based, human
# Conditions: 2 h pre-treatment with drug, then 3 mM Neu5Gc
# Method: The sonicate was centrifuged at 75×g for 15 min., and the pellet obtained consisted primarily of nuclei and unbroken cells. […] A portion (20%) of the “total homogenate” fraction was taken for protein quantification and Sia analysis by DMB derivatization and HPLC analysis (as discussed below.) The remainder was centrifuged at 100,000×g for 1 h. The resulting pellet, called the “membrane” fraction, was then resuspended by sonication (15 sec.) in 200 μl of sodium acetate buffer, pH 5.5. The 100,000×g supernatant, called the “soluble” fraction was adjusted to 90% ethanol using absolute ice-cold ethanol, and placed overnight at −20° C. The flocculant precipitate, which represents the “soluble protein” fraction, was washed 3 times with 90% ice-cold ethanol and then resuspended in 200 μl of water. The supernatant fluid representing the cytosolic low molecular weight (LMW) fraction was dried and brought up in 100 μL with water prior to Sia analysis. All the Sias in these fractions were released with mild acid hydrolysis if necessary and then analyzed by HPLC after DMB derivatization. Protein quantification was performed on the total homogenate, membrane and soluble protein fractions by using the BCA protein assay kit from Pierce (Rockford, Ill.) In some experiments, the resulting data obtained for the Sia bound to the membrane fraction and to the soluble proteins were pooled and presented here as a High Molecular Weight (HMW) fraction. Sialic Acid Release, DMB Derivatization and HPLC Analysis—The bound Sias from the total homogenate, membrane and soluble protein fractions were released using 2M acetic acid hydrolysis, 3 h. at 80° C. The released Sias, or free Sias, contained in the soluble LMW fraction were passed through a Microcon® YM-10 filter (Millipore, Bedford, Mass.) prior to DMB derivatization, which was done according to Hara et al., 1989. […] The eluant was monitored by fluorescence. Quantification of Sias—For all HPLC chromatograms, the quantification of Sias was done by comparison with known quantities of DMB derivatized Neu5Gc and Neu5Ac used as standards and then reported in terms of pmoles of Sia. For total homogenate, membrane and cytosolic protein fractions, this number was expressed per mg of protein. Due to minor sample-to-sample variations in amounts and recoveries, the data in the Figures is presented as percent of Neu5Gc over total Sias, rather than as absolute amounts. Endocytosis Inhibition Experiments—Caco-2 or normal fibroblast cells were split and cultured in alpha-MEM media supplemented respectively with 20% or 15% human serum for 4 days before starting the endocytosis drug inhibition experiments in order to deplete any Neu5Gc derived from FCS. Cells were then pre-treated for 2 h. with the specific inhibitors under the same culture conditions. Fresh media containing the same amount of inhibitor and 3 mM of Neu5Gc was then added to the cells, which were incubated for 16 h or 3 days and finally harvested and fractionated as described above.
SMILES,Neu5Gc incorporation into membrane-bound glycoconjugates in the presence of inhibitor (percent of total Sia) [%],incorporation of Neu5Gc in the TH fraction in the presence of inhibitor (percent of total Sia) [%]
N=C(N)NC(=O)c1nc(Cl)c(N)nc1N [amiloride],10,
CN(C)CCCN1c2ccccc2Sc2ccc(Cl)cc21 [chlorpromazine],50,
O=c1c(-c2ccc(O)cc2)coc2cc(O)cc(O)c12 [genistein],34,51
C[C@@H]1[C@H](O)[C@@H](C)/C=C/C=C/CC/C=C/C=C/C=C/C=C/C(O[C@H]2O[C@H](C)[C@@H](O)[C@H](N)[C@@H]2O)CC2O[C@](O)(CC(O)C(O)CCC(O)CC(O)CC(O)CC(=O)O[C@H]1C)CC(O)C2C(=O)O (stereo partly drawn) [nystatin],44,~65

# — patent publication US20080166805A1, “Culturing human cells and tissues in an N-glycolylneuraminic acid-free environment” (The Regents of the University of California, priority 2005, published 2008)
